Patent US20050059072A1, “Selective modulation of TLR gene expression” (3M Innovative Properties Company, priority 2003, published 2005)
“Also recorded” adds a separate entry of the source.

Tests used:
TLR3 gene [1] = assay: TLR3 gene expression in PBMCs (real-time PCR); assay type: cell-based, Human; conditions: in vitro (FIG. 1, FIG. 2)
Procedure: (§1) For some experiments, Peripheral Blood Mononuclear Cells (PBMCs) were isolated from donors by Ficol gradient centrifugation. For other experiments, leukophoresed mononuclear cells were obtained from AllCells, LLC (Berkeley, Calif.). Monocyte derived macrophages and dendritic cells were prepared from PBMCs using positive selection of CD14+ cells with Miltenyi micro beads (Miltenyi Biotec Inc., Auburn, Calif.). Dendritic cells were differentiated in RPMI 1640 with 10% fetal bovine serum, using 33 ng/mL IL4 and 66 ng/mL GM-CSF, and macrophages were differentiated using 25 ng/mL M-CSF, for seven days at 37° C.
(§2) IRM compounds were prepared as 1000× stocks in DMSO. PBMCs were diluted to approximately 3.0×10^6 cells per mL in Ex-Vivo 20 media, and 1.0 mL was distributed per well in a 96 deep well plate. Cells were allowed to equilibrate at 37° C. for 1 hour, then IRM compound was added to the culture.
(§3) At each indicated time point, cells were harvested as follows. PBMCs and dendritic cells were harvested by centrifuging the plate at 1500 RPM, 360 RCF, at 4° C. in a Qiagen SIGMA centrifuge (Qiagen Inc., Valencia, Calif.). The media was then vacuum aspirated and 400 μL of RLT buffer with 1.0% 2-mercaptoethanol was added to each well. Macrophage cultures were harvested by aspiration of the media and direct addition of the RLT buffer to the well. The total RNA was purified using a semi-automated procedure on the Qiagen BioRobot 8000 (Qiagen Inc., Valencia, Calif.), with an incorporated DNase digestion step.
(§4) Purified total RNA was transferred to Costar 3565 plate and the optical density at 260 nm and 280 nm was read using a Molecular Devices SpectroMax 384 Plus (Molecular Devices Corp., Sunnyvale, Calif.). The RNA was then ethanol precipitated, washed, and the pellet re-suspended in 10 μL of water. cDNA was made with the Invitrogen Superscript II Kit (Invitrogen Corp., Carlsbad, Calif.) using random priming and 2-3 μg of total RNA. PCR was performed using an ABI 7900 (Applied Biosystems Corp., Foster City, Calif.), and the 384 well Microfluidic Card with Taqman™ chemistry, and the reactions were standardized using 2 ng/μL cDNA in the master mix. Cycling conditions were 50° C. for 10 minutes, 95° C. for 2 minutes, then 35 cycles of 95° C. for 30 seconds, and 60° C. for 1 minute. Data was analyzed using SDS 2.0 software (Applied Biosystems, Inc.) using a threshold value of 0.1. The results were imported into Excel and the expression fold changes were calculated using the ΔΔCt method, (User Bulletin #2, PE Applied BioSystems, Inc.). Normalization of signals was performed using the housekeeping gene, GAPDH.

TLR5 gene = TLR5 gene expression in macrophages (real-time PCR); assay type: cell-based, Human; conditions: macrophages (FIG. 6)
Procedure: as §1, with “Calif.).” for “Calif.). Dendritic cells were differentiated in RPMI 1640 with 10% fetal bovine serum, using 33 ng/mL IL4 and 66 ng/mL GM-CSF, and macrophages were differentiated using 25 ng/mL M-CSF, for seven days at 37° C.”
as §2
(§5) At each indicated time point, cells were harvested as follows. […]
(§6) The RNA was then ethanol precipitated, washed, and the pellet re-suspended in 10 μL of water. cDNA was made with the Invitrogen Superscript II Kit (Invitrogen Corp., Carlsbad, Calif.) using random priming and 2-3 μg of total RNA. […] Data was analyzed using SDS 2.0 software (Applied Biosystems, Inc.) using a threshold value of 0.1. The results were imported into Excel and the expression fold changes were calculated using the ΔΔCt method, (User Bulletin #2, PE Applied BioSystems, Inc.). […]

TLR7 gene [2] = assay: TLR7 gene expression in macrophages (real-time PCR); assay type: cell-based, Human; conditions: macrophages (FIG. 7)
Procedure: as §1, with “Calif.).” for “Calif.). Dendritic cells were differentiated in RPMI 1640 with 10% fetal bovine serum, using 33 ng/mL IL4 and 66 ng/mL GM-CSF, and macrophages were differentiated using 25 ng/mL M-CSF, for seven days at 37° C.”
as §2, §5, §6

TLR8 gene = TLR8 gene expression in PBMCs (real-time PCR); assay type: cell-based, Human; conditions: in vitro (FIG. 1, FIG. 4)
Procedure: as §1, §2, §3, §4

TLR6 [3] = assay: TLR6 gene expression in dendritic cells (real-time PCR); assay type: cell-based, Human
Procedure: as §1
(§7) IRM compounds were prepared as 1000× stocks in DMSO. PBMCs were diluted to approximately 3.0×10^6 cells per mL in Ex-Vivo 20 media, and 1.0 mL was distributed per well in a 96 deep well plate. Cells were allowed to equilibrate at 37° C. for 1 hour, then IRM compound was added to the culture. […]
(§8) Purified total RNA was transferred to Costar 3565 plate and the optical density at 260 nm and 280 nm was read using a Molecular Devices SpectroMax 384 Plus (Molecular Devices Corp., Sunnyvale, Calif.). […] Data was analyzed using SDS 2.0 software (Applied Biosystems, Inc.) using a threshold value of 0.1. The results were imported into Excel and the expression fold changes were calculated using the ΔΔCt method, (User Bulletin #2, PE Applied BioSystems, Inc.). […]

TLR7 [4] = assay: TLR7 gene expression in dendritic cells (real-time PCR); assay type: cell-based, Human
Procedure: as §1, §7, §8

TLR3 gene [5] = assay: TLR3 gene expression in macrophages (real-time PCR); assay type: cell-based, Human; conditions: macrophages (FIG. 5)
Procedure: as §1, with “Calif.).” for “Calif.). Dendritic cells were differentiated in RPMI 1640 with 10% fetal bovine serum, using 33 ng/mL IL4 and 66 ng/mL GM-CSF, and macrophages were differentiated using 25 ng/mL M-CSF, for seven days at 37° C.”
as §2, §3
as §6, with “RNA. PCR was performed using an ABI 7900 (Applied Biosystems Corp., Foster City, Calif.), and the 384 well Microfluidic Card with Taqman™ chemistry, and the reactions were standardized using 2 ng/μL cDNA in the master mix.” for “RNA.”

TLR8 = TLR8 expression in actinic keratosis lesion biopsies, phase II study; assay type: in vivo, human; conditions: AK lesion, 5% cream (ALDARA) 3 times per week for 4 weeks; highest response time point vs sun-unexposed non-AK skin
Source text: (§9) A phase II, double-blind, vehicle-controlled, randomized, parallel group study included 17 male subjects with histologically confirmed actinic keratosis (AK). Eligible subjects were randomized to receive either IRM5 formulated as a 5% cream (ALDARA, 3M Pharmaceuticals, St. Paul, Minn.) or vehicle cream in a 3:1 ratio. Study subjects had at least five clinically typical, discrete, visible AK lesions within a 25 cm^2 area on the balding scalp that were suitable for shave biopsies.
(§10) Subjects applied 1 sachet (250 mg) of study cream to the treatment area 3 times per week for 4 weeks. Each dose of study cream was applied prior to normal sleeping hours at approximately the same time on each dosing day and was to remain on the skin for approximately 8 hours.
(§11) Each subject could have up to 8 shave biopsies performed. Biopsy samples obtained at the treatment initiation visit and all subsequent visits were designated for gene expression analysis. At the treatment initiation visit (T=0), an intact lesion in the treatment area was biopsied (sample series A) to establish a baseline for AK gene expression. […] The sun-unexposed area biopsy was used to establish baseline control for gene expression. […]
(§12) RNA from each sample was extracted and expression of TLR1, TLR3, TLR6, TLR7, TLR8, TLR9, and TLR10 was analyzed as described in Example 1. […]

TLR3 = TLR3 expression in actinic keratosis lesion biopsies, phase II study; assay type: in vivo, human; conditions: AK lesion, 5% cream (ALDARA) 3 times per week for 4 weeks; highest response time point vs sun-unexposed non-AK skin
Source text: as §9, §10, §11, §12

TLR1 = TLR1 expression in actinic keratosis lesion biopsies, phase II study; assay type: in vivo, human; conditions: AK lesion, 5% cream (ALDARA) 3 times per week for 4 weeks; highest response time point vs sun-unexposed non-AK skin
Source text: as §9, §10, §11, §12

TLR7 [6] = assay: TLR7 expression in actinic keratosis lesion biopsies, phase II study; assay type: in vivo, human; conditions: AK lesion, 5% cream (ALDARA) 3 times per week for 4 weeks; highest response time point vs sun-unexposed non-AK skin
Source text: as §9, §10, §11, §12

TLR9 = TLR9 expression in actinic keratosis lesion biopsies, phase II study; assay type: in vivo, human; conditions: AK lesion, 5% cream (ALDARA) 3 times per week for 4 weeks; highest response time point vs sun-unexposed non-AK skin
Source text: as §9, §10, §11, §12

TLR6 [7] = assay: TLR6 expression in actinic keratosis lesion biopsies, phase II study; assay type: in vivo, human; conditions: AK lesion, 5% cream (ALDARA) 3 times per week for 4 weeks; highest response time point vs sun-unexposed non-AK skin
Source text: as §9, §10, §11, §12

TLR10 = TLR10 expression in actinic keratosis lesion biopsies, phase II study; assay type: in vivo, human; conditions: AK lesion, 5% cream (ALDARA) 3 times per week for 4 weeks; highest response time point vs sun-unexposed non-AK skin
Source text: as §9, §10, §11, §12

TLR7 gene [8] = assay: TLR7 gene expression in PBMCs (real-time PCR); assay type: cell-based, Human; conditions: in vitro (FIG. 1, FIG. 3)
Procedure: as §1, §7, §8

CCOCc1nc2c(N)nc3c(c2n1CC(C)(C)O)CCCC3 [IRM1, 4-amino-2-(ethoxymethyl)-α,α-dimethyl-6,7,8,9-tetrahydro-1H-imidazo[4,5-c]quinoline-1-ethanol]
modulation of TLR3 gene expression (TLR3 gene [1]): upregulates gene expression
modulation of TLR5 gene expression (TLR5 gene): downregulated
modulation of TLR7 gene expression (TLR7 gene [2]): downregulated
modulation of TLR8 gene expression (TLR8 gene): higher and earlier peaks of gene expression
modulation of expression from TLR6 (TLR6 [3]): may downregulate expression
modulation of expression from TLR7 (TLR7 [4]): may downregulate expression
modulation of TLR3 gene expression (TLR3 gene [5]): downregulated; also recorded: downregulates gene expression

CCCCc1nc2c(N)nc3ccccc3c2n1CCCCNS(C)(=O)=O [IRM3, N-[4-(4-amino-2-butyl-1H-imidazo[4,5-c]quinolin-1-yl)butyl]methanesulfonamide]
modulation of TLR3 gene expression (TLR3 gene [1]): upregulate gene expression
modulation of TLR3 gene expression (TLR3 gene [5]): do not significantly modulate gene expression

CC(C)Cn1cnc2c(N)nc3ccccc3c21 [IRM5, 1-(2-methylpropyl)-1H-imidazo[4,5-c]quinolin-4-amine]
Median Fold Change - IRM5-treated (IRM-treated/Series C), TLR8 (TLR8): 2.4 fold
modulation of TLR3 gene expression (TLR3 gene [1]): upregulate gene expression
Median Fold Change - IRM5-treated (IRM-treated/Series C), TLR3 (TLR3): 1.5 fold
Median Fold Change - IRM5-treated (IRM-treated/Series C), TLR1 (TLR1): 2.1 fold
Median Fold Change - IRM5-treated (IRM-treated/Series C), TLR7 (TLR7 [6]): 4.9 fold
Median Fold Change - IRM5-treated (IRM-treated/Series C), TLR9 (TLR9): 15.2 fold
Median Fold Change - IRM5-treated (IRM-treated/Series C), TLR6 (TLR6 [7]): 1.9 fold
modulation of TLR3 gene expression (TLR3 gene [5]): do not significantly modulate gene expression
Median Fold Change - IRM5-treated (IRM-treated/Series C), TLR10 (TLR10): 3.6 fold

Cc1nc2c(N)nc3ccccc3c2n1CC(C)(C)O [IRM6, 4-amino-α,α,2-trimethyl-1H-imidazo[4,5-c]quinoline-1-ethanol]
modulation of TLR8 gene expression (TLR8 gene): higher and earlier peaks of gene expression

CC(C)Cn1cnc2c(N)nc3cccnc3c21 [IRM7, 1-(2-methylpropyl)-1H-imidazo[4,5-c][1,5]naphthyridin-4-amine]
modulation of TLR3 gene expression (TLR3 gene [1]): little effect on gene expression
modulation of TLR8 gene expression (TLR8 gene): little effect on gene expression
modulation of TLR7 gene expression (TLR7 gene [8]): little effect on gene expression

Cc1nc2c(N)nc3cccnc3c2n1CC(C)C [IRM8, 2-methyl-1-(2-methylpropyl)-1H-imidazo[4,5-c][1,5]naphthyridin-4-amine]
modulation of TLR8 gene expression (TLR8 gene): higher and earlier peaks of gene expression
